Results published in paper PMC6072100, “Exploring the links between peptoid antibacterial activity and toxicity” (MedChemComm, 2017).
Square brackets hold non-standard residues; d marks the D form. Peptide text beside a SMILES is read from it. Gly(Nα-4-Cl-benzyl) = O=C(O)CNCc1ccc(Cl)cc1; N(4-F-Bzl)Gly = O=C(O)CNCc1ccc(F)cc1; Gly(N-2-aminoethyl) = NCCNCC(=O)O; Nspe = C[C@H](NCC(=O)O)c1ccccc1; Nlys = NCCCCNCC(=O)O

Assays:
[1] = Skin cell toxicity assay with HaCaT (alamarBlue); assay type: cell-based, human; conditions: human, HaCaT cells (keratinocytes)
Method in brief: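 HaCaT cells seeded at 2x10^4 per well 24 hours before 1-hour exposure to a 2–100 µM triplicate dilution series in DMEM high glucose with 10% FBS at 37 °C, 5% CO2. Viability assessed with alamarBlue; ED50 defined as dose killing 50% of cells, derived from dose-response data.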

[2] = Cytotoxicity assay with HepG2 (alamarBlue); assay type: cell-based, human; conditions: human, HepG2 cells
Protocol: The activity of our peptoid library was assessed against both bacterial and mammalian cells to gain a broader understanding of the factors that lead to effective and selective antimicrobial peptoids. We screened for broad-spectrum antibacterial activity against Gram-negative (Escherichia coli and Pseudomonas aeruginosa) and Gram-positive (Staphylococcus aureus and S. epidermidis) bacteria. The toxicity of the library was also assessed against two mammalian cell lines; HaCaT spontaneously transformed aneuploid keratinocytes were employed to model toxicity against human skin cells and HepG2, a cell line derived from a human liver carcinoma, were used as a study on polarised human hepatocytes. Detailed methods for these assays can be found in the ESI. ^‡ […]
Please note – ED50, the median effective dose, was defined as the dose that kills 50% of cells.
Cytotoxicity analyses were performed in 96-well plates (Costar, Fisher Scientific) using alamarBlue® (Invitrogen) for cell viability detection using a modified protocol as described previously. HepG2 or HaCaT cells were subcultured at 37 °C, 5% CO2 in DMEM high glucose supplemented with heat-inactivated foetal bovine sera (FBS, 10%; Biosera Ltd) and penicillin/streptomycin (P/S, 1%). Cells were counted using a Neubauer Improved Haemocytometer. HepG2 cells were seeded 1 day prior to treatment in 96 well plates at a concentration of 2 × 10^5 cells per mL in 100 μL of medium (2 × 10^4 cells per well). Then cells were pre-incubated with the compounds in triplicate in a dilution series in triplicate from 2–100 μM (5 mM stock solutions in DMSO diluted from 100 μM to 3 μM; untreated cells with DMSO as a negative control) in 50 μl of the media for 1 hour. Afterwards, 40 μL were removed from each well before the addition of 90 μL of the media, followed by incubation for 24 hours at 37 °C, 5% CO2. Then, 10 μL of alamarBlue® (Invitrogen) was added to each well before a 2 hour incubation prior to assessing cell viability using a fluorescent plate reader (Biotek; Ex 560 nm/Em 600 nm). All data were measured in triplicate on a minimum of two occasions to ensure a robust data set was collected. The ED50 values were calculated from the dose response results achieved from the serial dilutions.
Cytotoxicity assay with HepG2
Cytotoxicity analyses were performed in 96-well plates (Costar, Fisher Scientific) using alamarBlue® (Invitrogen) for cell viability detection using a modified protocol as previously described. The HepG2 cells were grown at 37 °C, 5% CO2 in DMEM high glucose supplemented with heat-inactivated foetal bovine sera (FBS, 10%; Biosera Ltd) and penicillin/streptomycin (P/S, 1%). Cells were counted using a Neubauer Improved Haemocytometer. HepG2 cells were seeded 1 day prior to treatment in 96 well plates at a concentration of 2x10^5 cells/mL in 100 µL of medium (2x10^4 cells/well). Then cells were pre-incubated with the compounds in triplicate (5 mM stock solutions in DMSO diluted from 100 µM to 3 µM; untreated cells with DMSO as a negative control) in 50 µl of the media for 1 hour.
Afterwards, 40 µL were removed from each well before the addition of 90 µL of the media, followed by incubation for 24 hours at 37 °C, 5% CO2. Then, 10 µL of alamarBlue® (Invitrogen) was added to each well before a 2 hour incubation prior to assessing cell viability using a fluorescent plate reader (Biotek; Ex 560 nm / Em 600 nm). All data was measured in triplicate on a minimum of two occasions to ensure a robust data set was collected. The ED50 values were calculated from the dose response results achieved from the serial dilutions. […]
5% CO2 in DMEM high glucose supplemented with heat-inactivated foetal bovine sera (FBS, 10%; Biosera Ltd) and penicillin/streptomycin (P/S, 1%). Cells were counted using a Neubauer […]
Empty wells were filled with 100 µL PBS. After 24 hours, cells were incubated with the compounds in a dilution series in triplicate from 2 – 100 µM (5 mM stock solutions in DMSO […]

[3] = dose that kills 50% of cells, 2–100 μM, 1 h with compound then 24 h, alamarBlue, read-out: ED50 HaCaT
[4] = dose that kills 50% of cells, 2–100 μM, 1 h with compound then 24 h, alamarBlue, read-out: ED50 HepG2

Compound | CC50 at 24 h ([1]; ED50 HaCaT) | CC50 at 24 h ([2]; ED50 HepG2) | CC50 at 24 h [1, 3] | CC50 at 24 h [2, 4]
C[C@@H](c1ccccc1)N(CC(N)=O)C(=O)CN(C(=O)CN(CCCCCCN)C(=O)CN(C(=O)CN(C(=O)CNCCCCCCN)[C@@H](C)c1ccccc1)[C@@H](C)c1ccccc1)[C@@H](C)c1ccccc1 [Peptoid 12, (NahNspeNspe)2] | 100 µM | 100 µM | – | –
C[C@@H](c1ccccc1)N(CC(N)=O)C(=O)CN(C(=O)CN(CCCCN)C(=O)CN(C(=O)CN(C(=O)CN(CCCCN)C(=O)CN(C(=O)CN(C(=O)CN(CCCCN)C(=O)CN(C(=O)CN(C(=O)CNCCCCN)[C@@H](C)c1ccccc1)[C@@H](C)c1ccccc1)[C@@H](C)c1ccccc1)[C@@H](C)c1ccccc1)[C@@H](C)c1ccccc1)[C@@H](C)c1ccccc1)[C@@H](C)c1ccccc1 [Peptoid 13, (NLysNspeNspe)4] (H-[Nlys][Nspe][Nspe][Nlys][Nspe][Nspe][Nlys][Nspe][Nspe][Nlys][Nspe][Nspe]-NH2) | – | – | 20 µM | 29 µM
C[C@@H](c1ccccc1)N(CC(N)=O)C(=O)CN(C(=O)CN(CCCCN)C(=O)CN(C(=O)CN(C(=O)CN(CCCCN)C(=O)CN(C(=O)CN(C(=O)CNCCCCN)[C@@H](C)c1ccccc1)[C@@H](C)c1ccccc1)[C@@H](C)c1ccccc1)[C@@H](C)c1ccccc1)[C@@H](C)c1ccccc1 [Peptoid 14, (NLysNspeNspe)3] (H-[Nlys][Nspe][Nspe][Nlys][Nspe][Nspe][Nlys][Nspe][Nspe]-NH2) | – | – | 100 µM | 100 µM
C[C@@H](c1ccccc1)N(CC(N)=O)C(=O)CN(C(=O)CN(CCCCN)C(=O)CN(C(=O)CN(C(=O)CNCCCCN)[C@@H](C)c1ccccc1)[C@@H](C)c1ccccc1)[C@@H](C)c1ccccc1 [Peptoid 15, (NLysNspeNspe)2] (H-[Nlys][Nspe][Nspe][Nlys][Nspe][Nspe]-NH2) | 100 µM | 100 µM | – | –
C[C@@H](c1ccccc1)N(CC(N)=O)C(=O)CN(C(=O)CN(CCN)C(=O)CN(C(=O)CN(C(=O)CN(CCN)C(=O)CN(C(=O)CN(C(=O)CN(CCN)C(=O)CN(C(=O)CN(C(=O)CNCCN)[C@@H](C)c1ccccc1)[C@@H](C)c1ccccc1)[C@@H](C)c1ccccc1)[C@@H](C)c1ccccc1)[C@@H](C)c1ccccc1)[C@@H](C)c1ccccc1)[C@@H](C)c1ccccc1 [Peptoid 16, (NaeNspeNspe)4] (H-[Gly(N-2-aminoethyl)][Nspe][Nspe][Gly(N-2-aminoethyl)][Nspe][Nspe][Gly(N-2-aminoethyl)][Nspe][Nspe][Gly(N-2-aminoethyl)][Nspe][Nspe]-NH2) | 26 µM | 41 µM | – | –
C[C@@H](c1ccccc1)N(CC(N)=O)C(=O)CN(C(=O)CN(CCN)C(=O)CN(C(=O)CN(C(=O)CN(CCN)C(=O)CN(C(=O)CN(C(=O)CNCCN)[C@@H](C)c1ccccc1)[C@@H](C)c1ccccc1)[C@@H](C)c1ccccc1)[C@@H](C)c1ccccc1)[C@@H](C)c1ccccc1 [Peptoid 17, (NaeNspeNspe)3] | – | – | 100 µM | 100 µM
C[C@@H](c1ccccc1)N(CC(N)=O)C(=O)CN(C(=O)CN(CCN)C(=O)CN(C(=O)CN(C(=O)CNCCN)[C@@H](C)c1ccccc1)[C@@H](C)c1ccccc1)[C@@H](C)c1ccccc1 [Peptoid 18, (NaeNspeNspe)2] | 100 µM | 100 µM | – | –
COc1ccc(CN(CC(N)=O)C(=O)CN(Cc2ccc(OC)cc2)C(=O)CN(CCCCN)C(=O)CN(Cc2ccc(OC)cc2)C(=O)CN(Cc2ccc(OC)cc2)C(=O)CN(CCCCN)C(=O)CN(Cc2ccc(OC)cc2)C(=O)CN(Cc2ccc(OC)cc2)C(=O)CN(CCCCN)C(=O)CN(Cc2ccc(OC)cc2)C(=O)CN(Cc2ccc(OC)cc2)C(=O)CNCCCCN)cc1 [Peptoid 19, (NLysNpmbNpmb)4] | 41 µM | 100 µM | – | –
NCCCCNCC(=O)N(CC(=O)N(CC(=O)N(CCCCN)CC(=O)N(CC(=O)N(CC(=O)N(CCCCN)CC(=O)N(CC(=O)N(CC(=O)N(CCCCN)CC(=O)N(CC(=O)N(CC(N)=O)Cc1ccc(Cl)cc1)Cc1ccc(Cl)cc1)Cc1ccc(Cl)cc1)Cc1ccc(Cl)cc1)Cc1ccc(Cl)cc1)Cc1ccc(Cl)cc1)Cc1ccc(Cl)cc1)Cc1ccc(Cl)cc1 [Peptoid 20, (NLysNpcbNpcb)4] (H-[Nlys][Gly(Nα-4-Cl-benzyl)][Gly(Nα-4-Cl-benzyl)][Nlys][Gly(Nα-4-Cl-benzyl)][Gly(Nα-4-Cl-benzyl)][Nlys][Gly(Nα-4-Cl-benzyl)][Gly(Nα-4-Cl-benzyl)][Nlys][Gly(Nα-4-Cl-benzyl)][Gly(Nα-4-Cl-benzyl)]-NH2) | 18 µM | 22 µM | – | –
NCCCCNCC(=O)N(CC(=O)N(CC(=O)N(CCCCN)CC(=O)N(CC(=O)N(CC(=O)N(CCCCN)CC(=O)N(CC(=O)N(CC(N)=O)Cc1ccc(Cl)cc1)Cc1ccc(Cl)cc1)Cc1ccc(Cl)cc1)Cc1ccc(Cl)cc1)Cc1ccc(Cl)cc1)Cc1ccc(Cl)cc1 [Peptoid 21, (NLysNpcbNpcb)3] (H-[Nlys][Gly(Nα-4-Cl-benzyl)][Gly(Nα-4-Cl-benzyl)][Nlys][Gly(Nα-4-Cl-benzyl)][Gly(Nα-4-Cl-benzyl)][Nlys][Gly(Nα-4-Cl-benzyl)][Gly(Nα-4-Cl-benzyl)]-NH2) | 22 µM | 23 µM | – | –
NCCCCNCC(=O)N(CC(=O)N(CC(=O)N(CCCCN)CC(=O)N(CC(=O)N(CC(=O)N(CCCCN)CC(=O)N(CC(=O)N(CC(=O)N(CCCCN)CC(=O)N(CC(=O)N(CC(N)=O)Cc1ccc(F)cc1)Cc1ccc(F)cc1)Cc1ccc(F)cc1)Cc1ccc(F)cc1)Cc1ccc(F)cc1)Cc1ccc(F)cc1)Cc1ccc(F)cc1)Cc1ccc(F)cc1 [Peptoid 22, (NLysNpfbNpfb)4] (H-[Nlys][N(4-F-Bzl)Gly][N(4-F-Bzl)Gly][Nlys][N(4-F-Bzl)Gly][N(4-F-Bzl)Gly][Nlys][N(4-F-Bzl)Gly][N(4-F-Bzl)Gly][Nlys][N(4-F-Bzl)Gly][N(4-F-Bzl)Gly]-NH2) | 46 µM | 30 µM | – | –
NCCCCNCC(=O)N(CC(=O)N(CC(=O)N(CCCCN)CC(=O)N(CC(=O)N(CC(=O)N(CCCCN)CC(=O)N(CC(=O)N(CC(N)=O)Cc1ccc(F)cc1)Cc1ccc(F)cc1)Cc1ccc(F)cc1)Cc1ccc(F)cc1)Cc1ccc(F)cc1)Cc1ccc(F)cc1 [Peptoid 23, (NLysNpfbNpfb)3] (H-[Nlys][N(4-F-Bzl)Gly][N(4-F-Bzl)Gly][Nlys][N(4-F-Bzl)Gly][N(4-F-Bzl)Gly][Nlys][N(4-F-Bzl)Gly][N(4-F-Bzl)Gly]-NH2) | 100 µM | 45 µM | – | –
NCCCCNCC(=O)N(CC(=O)N(CC(=O)N(CCCCN)CC(=O)N(CC(=O)N(CC(=O)N(CCCCN)CC(=O)N(CC(=O)N(CC(=O)N(CCCCN)CC(=O)N(CC(=O)N(CC(N)=O)Cc1cccc(F)c1)Cc1cccc(F)c1)Cc1cccc(F)c1)Cc1cccc(F)c1)Cc1cccc(F)c1)Cc1cccc(F)c1)Cc1cccc(F)c1)Cc1cccc(F)c1 [Peptoid 24, (NLysNmfbNmfb)4] | 25 µM | 17 µM | – | –
NCCCCNCC(=O)N(CC(=O)N(CC(=O)N(CCCCN)CC(=O)N(CC(=O)N(CC(=O)N(CCCCN)CC(=O)N(CC(=O)N(CC(N)=O)Cc1cccc(F)c1)Cc1cccc(F)c1)Cc1cccc(F)c1)Cc1cccc(F)c1)Cc1cccc(F)c1)Cc1cccc(F)c1 [Peptoid 25, (NLysNmfbNmfb)3] | 64 µM | 43 µM | – | –
